# Test results from patent US20240400991A1, “IMMUNE CELLS WITH REDUCED ANDROGEN RECEPTOR (AR) LEVEL, AND METHODS OF THEIR USE TO ENHANCE ANTI-CANCER THERAPY” (Oregon Health & Science University, priority 2021, published 2024).
# Tests used:
# [1] = tested on: OTI T cells in the tumor; assay: Adoptive T cell therapy model: OT1 CD8 T cells in MCA-OVA tumor bearing RIP-mOVA animals
# [2] = tested on: CD8 tumor infiltrating cells; assay: Flow cytometry / intracellular cytokine staining of tumor infiltrating CD8 T cells in PPSM tumor bearing animals; format: in vivo, mouse; settings: FIGS. 8I-8L
# Method: (subcutaneous) injection once every 14 days.
# Flow cytometry. Cells were incubated for 20 min on ice with e506 fixable viability dye and the following antibodies: […] (H57-597), CD4 (RM4-5), CD8 (53-6.7), CD44 (IM7), PD-1 (J43) and Thy1.1 (HIS51). Intracellular proteins Ki67 (SolA15), IFNγ (XMG1.2), TNFα (MP6-CT22), Nur77 (12.14) and Granzyme B (NGZB) were detected using the Fixation/Permeabilization Solution kit from BD Biosciences. All antibodies and viability dyes were purchased from eBioscience, Biolegend, or BD Biosciences. Data were collected with a Fortessa™ flow cytometer (BD Biosciences) and analyzed using FlowJo software (Tree Star). Unless noted otherwise in the figure legend, cells were gated through live/TCRβ+/CD8+ gates for analysis.
# In vitro activation and intracellular cytokine staining.
compound,measurement,setting,value
"CNC(=O)c1ccc(N2C(=S)N(c3ccc(C#N)c(C(F)(F)F)c3)C(=O)C2(C)C)cc1F [enzalutamide, 4-(3-(4-cyano-3-(trifluoromethyl)phenyl)-5,5-dimethyl-4-oxo-2-thioxoimidazolidin-I-yl)-2-fluoro-N-methyl benzamide]",cytokine production in tumor specific T cells,[1]; FIGS. 10A-10C legend,increased cytokine production
same,IFNγ production of tumor-antigen specific CD8 T cells,"[1]; female mice, FIG. 10C",increased
same,IFNγ production of tumor-antigen specific CD8 T cells,"[1]; male mice, chemically castrated (degarelix), FIG. 10B",increased
same,polyfunctionality of tumor-associated CD8 T cells,[2],insufficient to improve the polyfunctionality
